Patent publication US20060154243A1 (priority 2003, published 2006)

Key:
serum 37 (individual 37) = assay type: binding, human
serum SARS-green = assay type: binding, human
serum SARS-yellow = assay type: binding, human
[1] = system: control serum LUMC (pooled serum of ten healthy hospital workers); assay type: binding, human
[2] = system: rabbit serum obtained by immunizing with SARS-CoV strain Frankfurt 1; assay type: binding
serum 6 (individual 6) = assay type: binding, human
[3] = system: serum 1b (individual 1, late serum); assay type: binding, human
[4] = system: control serum Blood-bank (commercial negative donor pooled serum); assay type: binding, human
serum 62 (individual 62) = assay type: binding, human
serum 2 (individual 2) = assay type: binding, human
[5] = system: serum 1a (individual 1, early serum); assay type: binding, human
serum London = assay type: binding, human
[6] = system: sera SARS-green, SARS-yellow, 1a, 1b, 2, 6, 37, 62 and London; assay type: binding, human

Sequence	Binding of serum 37 to linear peptides of Orf14 of SARS-CoV TOR2 (serum 37 (individual 37))	Binding of serum SARS-green to linear peptides of Orf14 of SARS-CoV TOR2 (serum SARS-green)	Binding of serum SARS-yellow to linear peptides of Orf14 of SARS-CoV TOR2 (serum SARS-yellow)	Control serum LUMC linear peptides [1]	Control serum LUMC looped peptides [1]	Recognition by the rabbit serum [2]	Binding of serum 6 to linear peptides of Orf14 of SARS-CoV TOR2 (serum 6 (individual 6))	Binding of serum 1b to linear peptides of Orf14 of SARS-CoV TOR2 [3]	Control Serum Blood-Bank Looped peptides [4]	Control serum Blood-bank linear peptides [4]	Binding of serum 62 to linear peptides of Orf14 of SARS-CoV TOR2 (serum 62 (individual 62))	Binding of serum 2 to linear peptides of Orf14 of SARS-CoV TOR2 (serum 2 (individual 2))	Binding of serum 1a to linear peptides of Orf14 of SARS-CoV TOR2 [5]	Binding of serum London to linear peptides of Orf14 of SARS-CoV TOR2 (serum London)	Recognition of the peptide by sera of individuals infected by SARS-CoV, form recognized [6]
AAVKPLLAPHHVVAV	0.9	0.6	0.8	1.0	0.7	recognized by the rabbit serum	0.7	0.6	0.6	1.0	0.9	1.0	0.8	0.8	
ASTQREAEAAVKPLL	0.5	0.4	0.4	0.4	0.8		0.5	0.3	0.9	0.5	0.4	0.4	0.4	0.4	recognized in looped form
AVKPLLAPHHVVAVI	0.7	0.3	0.6	0.6	0.7	recognized by the rabbit serum	0.5	0.4	0.7	0.7	0.5	0.5	0.6	0.5	
CQKASTQREAEAAVK	0.3	0.0	0.1	0.2	0.5		0.2	0.2	0.7	0.2	0.2	0.3	0.3	0.2	recognized in looped form
CYNFLKEQHCQKAST	0.6	0.4	0.1	0.3	0.5		0.5	0.3	0.6	0.4	0.4	0.5	0.5	0.7	recognized in looped form
EAAVKPLLAPHHVVA	0.7	0.6	0.6	0.8	0.7	recognized by the rabbit serum	0.5	0.5	0.8	0.6	0.6	0.7	0.6	0.8	
EQHCQKASTQREAEA	0.5	0.3	0.4	0.4	0.8		0.4	0.4	0.9	0.5	0.3	0.6	0.4	0.5	recognized in looped form
VIQEIQLLAAVGEIL	0.6	0.5	0.3	0.6	0.9		0.3	0.4	0.5	0.4	0.4	0.4	0.5	0.4	
VKPLLAPHHVVAVIQ	0.7	0.3	0.4	0.6	0.6	recognized by the rabbit serum	0.5	0.5	0.7	0.7	0.5	0.6	0.6	0.6	
VVAVIQEIQLLAAVG	0.6	0.5	0.4	1.1	0.4		1.3	0.7	0.5	1.1	0.8	0.7	0.8	1.0	
